The source of these data is publication PMC12627810 (Nature Communications, 2025).

Assay [1] deals with T1, SERT WT (Homo sapiens, UniProt P31645). In words: [3H]5-HT uptake inhibition, intact COS-7 cells expressing SERT WT. It counts as cell-based.
For another assay, the system named is SERT V86Anap (purified). Nature of the assay: Anap fluorescence emission spectra, SERT V86Anap. Set-up: species or system human. The conditions noted are these: 200 nM ligand.
In assay [2] the test system is SERT F556Anap (purified). In words: Anap fluorescence emission spectra, SERT F556Anap. Particulars: 200 nM ligand. Set-up: species or system human.
The test system of assay [3] is SERT F556Anap (purified). Nature of the assay: Real-time Anap fluorescence measurements, SERT F556Anap. It counts as binding, human. The conditions noted are these: 200 nM vilazodone after 30 min preincubation with 100 nM imipramine, Na+.
Assay [4] deals with T1, SERT WT. Particulars: previous study; cited from earlier work.
The subject of the next assay is SERT allosteric site. Particulars: S1-bound [3H]imipramine; cited from earlier work.
Assay [5] has as its system SERT-expressing membranes. Particulars: cited from earlier work.

Several values for one entry are separate records, joined by “and”; a condition that tells them apart may be missing. Equal values may be shown once. Read-outs that look alike come from different tables or passages of the source. Where only a bound is given, the exact number is not on record here.

T1 sequence (P31645 whole entry): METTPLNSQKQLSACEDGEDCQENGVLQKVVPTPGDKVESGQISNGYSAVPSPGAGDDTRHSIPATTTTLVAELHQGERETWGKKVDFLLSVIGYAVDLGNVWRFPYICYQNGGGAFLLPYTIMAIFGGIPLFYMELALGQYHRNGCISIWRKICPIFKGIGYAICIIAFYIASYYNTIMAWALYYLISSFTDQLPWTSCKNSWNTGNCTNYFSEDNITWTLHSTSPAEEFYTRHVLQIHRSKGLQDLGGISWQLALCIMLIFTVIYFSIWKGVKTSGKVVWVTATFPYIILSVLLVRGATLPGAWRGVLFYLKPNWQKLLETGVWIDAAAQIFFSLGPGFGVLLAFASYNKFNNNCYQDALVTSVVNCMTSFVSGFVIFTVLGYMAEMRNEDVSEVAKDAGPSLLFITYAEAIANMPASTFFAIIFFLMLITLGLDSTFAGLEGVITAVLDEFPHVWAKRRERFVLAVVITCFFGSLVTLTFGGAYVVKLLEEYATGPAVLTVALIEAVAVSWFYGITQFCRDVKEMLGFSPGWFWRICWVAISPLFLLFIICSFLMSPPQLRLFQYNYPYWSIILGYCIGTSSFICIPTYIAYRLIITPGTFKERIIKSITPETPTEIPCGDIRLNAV

`N#Cc1ccc2[nH]cc(CCCCN3CCN(c4ccc5oc(C(N)=O)cc5c4)CC3)c2c1` [vilazodone]: the “Hill coefficient (vilazodone)” value on SERT WT [1] (SERT WT) is greater than 1. In addition, at SERT WT [1] (preincubation with 100 nM Fab 15B8 vs buffer, whole cells), the “5-HT uptake inhibition by vilazodone in presence of Fab 15B8” value is reported as “unchanged”. In addition, the figures for the “change of V86Anap fluorescence emission” value in the assay with SERT V86Anap (purified) (200 mM K+) and in the assay with SERT V86Anap (purified) (200 mM Na+) were “increasing the fluorescence” and “decreased the fluorescence”, respectively. Moreover, the “change of F556Anap fluorescence emission” value with SERT F556Anap (purified) [2] (200 mM K+) was “red-shifted and increase in fluorescence”; in the assay with SERT F556Anap (purified) [2] (200 mM NMDG+) it was “decrease in quantum yield and a blue-shift”; with SERT F556Anap (purified) [2] (200 mM Na+) it was “large decrease in intensity accompanied by a blue-shift”. Moreover, in the assay with SERT F556Anap (purified) [3], the “τ of time-dependent change in fluorescence, imipramine-bound SERT” value is recorded as 0.8 ± 0.18 min. The “Hill coefficient of inhibition of [3H]5-HT uptake” value at SERT WT [4] is 1.8 and ~ 1.8. Further, the “allosteric potency (inhibition of dissociation of pre-bound [3H]imipramine)” value in the assay with SERT allosteric site was 14 nM and ~ 14 nM. For the same molecule, the “affinity, SERT-expressing membranes” value in assay [5] (K+) was 36.7 nM; in assay [5] (Na+) it was 5.8 nM.
